Data published in patent US20250353842A1, “BICYCLIC AMINE CDK12 INHIBITORS” (Incyte Corporation, priority 2022, published 2025).

Target: CDK12 complexed with Cyclin K (Homo sapiens (Human), UniProt Q9NYV4)
Test: CDK enzymatic assay (HTRF, LANCE Ultra kinase assay)
Assay type: biochemical
Settings: 60 minutes pre-incubation, 1 mM ATP
In short: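 GST-tagged human CDK12 co-expressed with full-length Cyclin K in baculovirus, pre-incubated 60 min with compound, then 1 mM ATP and 50 nM ULight-4E-BP1 peptide (final) in pH 7.5 HEPES buffer for 60-90 min at room temperature. EDTA/Eu-anti-phospho-4E-BP1 stop; 665/620 nm HTRF ratio normalized to DMSO and no-enzyme controls, IC50 from 3- or 4-parameter fit.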

Sequence of CDK12 complexed with Cyclin K (Q9NYV4 whole entry): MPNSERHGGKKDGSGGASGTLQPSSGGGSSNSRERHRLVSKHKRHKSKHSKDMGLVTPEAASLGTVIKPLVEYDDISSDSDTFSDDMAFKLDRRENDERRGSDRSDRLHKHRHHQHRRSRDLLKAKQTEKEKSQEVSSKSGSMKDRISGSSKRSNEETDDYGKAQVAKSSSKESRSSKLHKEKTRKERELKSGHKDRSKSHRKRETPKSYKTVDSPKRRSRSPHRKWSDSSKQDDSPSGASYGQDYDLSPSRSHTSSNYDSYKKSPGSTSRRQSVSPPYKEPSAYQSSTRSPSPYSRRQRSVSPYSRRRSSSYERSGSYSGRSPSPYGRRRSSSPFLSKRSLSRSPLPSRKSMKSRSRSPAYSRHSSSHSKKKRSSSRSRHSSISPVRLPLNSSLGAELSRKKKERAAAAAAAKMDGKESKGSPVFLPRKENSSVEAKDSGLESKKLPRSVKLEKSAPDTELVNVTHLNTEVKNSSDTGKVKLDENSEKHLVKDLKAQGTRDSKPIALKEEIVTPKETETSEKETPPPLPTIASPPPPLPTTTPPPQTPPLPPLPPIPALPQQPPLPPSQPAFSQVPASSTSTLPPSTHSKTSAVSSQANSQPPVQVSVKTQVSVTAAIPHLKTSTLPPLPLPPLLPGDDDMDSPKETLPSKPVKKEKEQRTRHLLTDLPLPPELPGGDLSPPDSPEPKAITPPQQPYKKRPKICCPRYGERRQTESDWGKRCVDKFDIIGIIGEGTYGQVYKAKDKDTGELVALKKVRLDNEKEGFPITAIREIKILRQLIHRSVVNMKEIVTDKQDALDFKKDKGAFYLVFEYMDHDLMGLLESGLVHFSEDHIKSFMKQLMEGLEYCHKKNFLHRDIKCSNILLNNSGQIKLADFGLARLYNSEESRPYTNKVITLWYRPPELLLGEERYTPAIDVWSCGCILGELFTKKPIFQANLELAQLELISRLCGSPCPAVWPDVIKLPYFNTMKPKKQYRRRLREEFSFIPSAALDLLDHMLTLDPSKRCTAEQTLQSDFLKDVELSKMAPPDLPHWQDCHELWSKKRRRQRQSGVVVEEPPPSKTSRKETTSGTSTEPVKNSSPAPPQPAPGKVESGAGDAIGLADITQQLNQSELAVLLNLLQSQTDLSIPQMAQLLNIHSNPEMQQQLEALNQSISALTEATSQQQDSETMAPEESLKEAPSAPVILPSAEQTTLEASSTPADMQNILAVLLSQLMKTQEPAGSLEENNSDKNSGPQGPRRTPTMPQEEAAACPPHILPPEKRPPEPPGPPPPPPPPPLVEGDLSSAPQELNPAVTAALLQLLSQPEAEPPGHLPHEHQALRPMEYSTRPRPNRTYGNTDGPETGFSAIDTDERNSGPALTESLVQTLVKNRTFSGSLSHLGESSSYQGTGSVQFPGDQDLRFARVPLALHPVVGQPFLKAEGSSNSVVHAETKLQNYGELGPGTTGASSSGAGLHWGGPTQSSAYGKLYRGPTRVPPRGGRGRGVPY
Sequence of CDK12 complexed with Cyclin K (O75909 whole entry partner): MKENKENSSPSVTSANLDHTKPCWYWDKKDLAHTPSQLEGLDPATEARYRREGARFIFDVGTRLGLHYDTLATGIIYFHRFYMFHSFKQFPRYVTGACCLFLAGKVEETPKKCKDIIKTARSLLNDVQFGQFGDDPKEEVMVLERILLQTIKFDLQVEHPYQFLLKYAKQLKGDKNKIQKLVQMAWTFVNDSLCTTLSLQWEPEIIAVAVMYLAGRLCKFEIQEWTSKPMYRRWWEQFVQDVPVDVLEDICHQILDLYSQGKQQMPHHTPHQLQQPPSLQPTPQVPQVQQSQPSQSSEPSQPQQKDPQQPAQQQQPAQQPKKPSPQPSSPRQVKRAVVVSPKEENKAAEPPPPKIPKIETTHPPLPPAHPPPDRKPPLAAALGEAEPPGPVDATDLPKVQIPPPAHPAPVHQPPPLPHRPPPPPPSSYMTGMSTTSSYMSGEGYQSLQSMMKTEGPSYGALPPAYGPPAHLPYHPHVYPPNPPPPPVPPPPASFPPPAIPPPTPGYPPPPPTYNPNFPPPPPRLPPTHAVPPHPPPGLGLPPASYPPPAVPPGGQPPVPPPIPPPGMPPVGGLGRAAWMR

| SMILES | IC50 [nM] |
| --- | --- |
| CC(C)n1cc(-c2nc(N[C@@H]3CCC[C@H](n4cnc5cc(C#N)cnc54)C3)ncc2C#N)cn1 [Example 72, 3-((1S,3R)-3-((5-Cyano-4-(1-isopropyl-1H-pyrazol-4-yl)pyrimidin-2-yl)amino)cyclohexyl)-3H-imidazo[4,5-b]pyridine-6-carbonitrile] | < 50 |
| N#Cc1cnc2c(c1)ncn2[C@H]1CCC[C@@H](Nc2ncc(C#N)c(-c3cnn(C4CCC4)c3)n2)C1 [Example 38, 3-((1S,3R)-3-((5-Cyano-4-(1-cyclobutyl-1H-pyrazol-4-yl)pyrimidin-2-yl)amino)cyclohexyl)-3H-imidazo[4,5-b]pyridine-6-carbonitrile] | < 50 |
| Cn1ncc(-c2nc(N[C@@H]3CCC[C@H](n4cnc5cccnc54)C3)ncc2C#N)c1C(F)(F)F [Example 23, 2-(((1R,3S)-3-(3H-Imidazo[4,5-b]pyridin-3-yl)cyclohexyl)amino)-4-(1-methyl-5-(trifluoromethyl)-1H-pyrazol-4-yl)pyrimidine-5-carbonitrile] | 50 to 500 |
| N#Cc1cnc2c(c1)ncn2[C@H]1CCC[C@@H](Nc2ncc(Cl)c(-c3cnn(CC(F)F)c3)n2)C1 [Example 14, 3-((1S,3R)-3-((5-Chloro-4-(1-(2,2-difluoroethyl)-1H-pyrazol-4-yl)pyrimidin-2-yl)amino)cyclohexyl)-3H-imidazo[4,5-b]pyridine-6-carbonitrile] | < 50 |
| COc1ccc2ncn([C@H]3CCC[C@@H](Nc4ncc(C(F)(F)F)c(-c5cnn(CC(F)F)c5)n4)C3)c2n1 [Example 6, 4-(1-(2,2-Difluoroethyl)-1H-pyrazol-4-yl)-N-((1R,3S)-3-(5-methoxy-3H-imidazo[4,5-b]pyridin-3-yl)cyclohexyl)-5-(trifluoromethyl)pyrimidin-2-amine] | < 50 |
| N#Cc1cnc(N[C@@H]2CCC[C@H](n3cnc4cccnc43)C2)nc1-c1c[nH]nc1C1CC1 [Example 21, 2-(((1R,3S)-3-(3H-Imidazo[4,5-b]pyridin-3-yl)cyclohexyl)amino)-4-(3-cyclopropyl-1H-pyrazol-4-yl)pyrimidine-5-carbonitrile] | < 50 |
| N#Cc1cc2ncn([C@H]3CCC[C@@H](Nc4ncc(C#N)c(-c5cnn(CC(F)F)c5)n4)C3)c2[n+]([O-])c1 [Example 53, 6-Cyano-3-((1S,3R)-3-((5-cyano-4-(1-(2,2-difluoroethyl)-1H-pyrazol-4-yl)pyrimidin-2-yl)amino)cyclohexyl)-3H-imidazo[4,5-b]pyridine 4-oxide] | < 50 |
| N#Cc1cnc2c(c1)ncn2[C@H]1CCC[C@@H](Nc2ncc(C(F)(F)F)c(-c3cnn(CC(F)F)c3)n2)C1 [Example 1, 3-((1S,3R)-3-((4-(1-(2,2-Difluoroethyl)-1H-pyrazol-4-yl)-5-(trifluoromethyl)pyrimidin-2-yl)amino)cyclohexyl)-3H-imidazo[4,5-b]pyridine-6-carbonitrile] | < 50 |
| Cn1cc(-c2cnc3c(c2)ncn3[C@H]2CCC[C@@H](Nc3ncc(C(F)(F)F)c(-c4cnn(CC(F)F)c4)n3)C2)cn1 [Example 81, 4-(1-(2,2-Difluoroethyl)-1H-pyrazol-4-yl)-N-((1R,3S)-3-(6-(1-methyl-1H-pyrazol-4-yl)-3H-imidazo[4,5-b]pyridin-3-yl)cyclohexyl)-5-(trifluoromethyl)pyrimidin-2-amine] | < 50 |
| N#Cc1cnc(N[C@@H]2CCC[C@H](n3cnc4cccnc43)C2)nc1-c1cnn(CC(F)F)c1 [Example 11, 2-(((1R,3S)-3-(3H-Imidazo[4,5-b]pyridin-3-yl)cyclohexyl)amino)-4-(1-(2,2-difluoroethyl)-1H-pyrazol-4-yl)pyrimidine-5-carbonitrile] | < 50 |
| Cc1ncc(C#N)c2c1ncn2[C@H]1CCC[C@@H](Nc2ncc(C#N)c(-c3cnn(CC(F)F)c3)n2)C1 [Example 48, 1-((1S,3R)-3-((5-Cyano-4-(1-(2,2-difluoroethyl)-1H-pyrazol-4-yl)pyrimidin-2-yl)amino)cyclohexyl)-4-methyl-1H-imidazo[4,5-c]pyridine-7-carbonitrile] | < 50 |
| N#Cc1cnc(N[C@@H]2CCC[C@H](n3cnc4cncc(C#N)c43)C2)nc1-c1cnn(C2CC2)c1 [Example 34, 1-((1S,3R)-3-((5-Cyano-4-(1-cyclopropyl-1H-pyrazol-4-yl)pyrimidin-2-yl)amino)cyclohexyl)-1H-imidazo[4,5-c]pyridine-7-carbonitrile] | < 50 |
| N#Cc1cnc(N[C@@H]2CCC[C@H](n3cnc4cccc(Br)c43)C2)nc1-c1cnn(CC(F)F)c1 [Example 41, 2-(((1R,3S)-3-(7-Bromo-1H-benzo[d]imidazol-1-yl)cyclohexyl)amino)-4-(1-(2,2-difluoroethyl)-1H-pyrazol-4-yl)pyrimidine-5-carbonitrile] | < 50 |
| N#Cc1ccc2ncn([C@H]3CCC[C@@H](Nc4ncc(C#N)c(-c5cnn(CC(F)F)c5)n4)C3)c2c1 [Example 43, 1-((1S,3R)-3-((5-Cyano-4-(1-(2,2-difluoroethyl)-1H-pyrazol-4-yl)pyrimidin-2-yl)amino)cyclohexyl)-1H-benzo[d]imidazole-6-carbonitrile] | < 50 |
| N#Cc1ccc2c(ccn2[C@H]2CCC[C@@H](Nc3ncc(C(F)(F)F)c(-c4cnn(CC(F)F)c4)n3)C2)c1 [Example 16, 1-((1S,3R)-3-((4-(1-(2,2-Difluoroethyl)-1H-pyrazol-4-yl)-5-(trifluoromethyl)pyrimidin-2-yl)amino)cyclohexyl)-1H-indole-5-carbonitrile] | 50 to 500 |
| CC(O)Cn1cc(-c2nc(N[C@@H]3CCC[C@H](n4cnc5cc(C#N)cnc54)C3)ncc2C#N)cn1 (stereo partly drawn) [Example 67, 3-((1S,3R)-3-((5-Cyano-4-(1-(2-hydroxypropyl)-1H-pyrazol-4-yl)pyrimidin-2-yl)amino)cyclohexyl)-3H-imidazo[4,5-b]pyridine-6-carbonitrile] | < 50 |
| N#Cc1cnc(N[C@@H]2CCC[C@H](n3cnc4cccc(C#N)c43)C2)nc1-c1cnn(CC(F)F)c1 [13/13A, 1-((1S,3R)-3-((5-Cyano-4-(1-(2,2-difluoroethyl)-1H-pyrazol-4-yl)pyrimidin-2-yl)amino)cyclohexyl)-1H-benzo[d]imidazole-7-carbonitrile] | < 50 |
| N#Cc1cnc(N[C@@H]2CCC[C@H](n3cnc4cncc(C#N)c43)C2)nc1-c1cnn(CCO)c1 [Example 32, 1-((1S,3R)-3-((5-Cyano-4-(1-(2-hydroxyethyl)-1H-pyrazol-4-yl)pyrimidin-2-yl)amino)cyclohexyl)-1H-imidazo[4,5-c]pyridine-7-carbonitrile] | < 50 |
| FC(F)Cn1cc(-c2nc(N[C@@H]3CCC[C@H](n4cnc5cc(C6CC6)cnc54)C3)ncc2C(F)(F)F)cn1 [Example 79, N-((1R,3S)-3-(6-Cyclopropyl-3H-imidazo[4,5-b]pyridin-3-yl)cyclohexyl)-4-(1-(2,2-difluoroethyl)-1H-pyrazol-4-yl)-5-(trifluoromethyl)pyrimidin-2-amine] | < 50 |
